According to patent US6492417B1, “11-deoxy-16-fluoro-PGF2α analogs as FP receptor antagonists” (Alcon Manufacturing, Ltd., priority 1997, dated 2002):

Experiments:
[1] = target: T1, FP receptor (Rattus norvegicus, UniProt P43118); assay: Schild analysis: antagonism of fluprostenol-induced [3H]IPs production in A7r5 cells (fixed antagonist, varied agonist); assay type: cell-based; settings: for Kb (potency as antagonist of the FP receptor) / Kb: Schild analysis; for Kb: read-out: Kb (potency as antagonist of the FP receptor)
T1 construct: Two cell lines containing the FP receptor; host or cells: A7r5 rat thoracic aorta smooth muscle cells
T1 sequence (P43118 whole entry): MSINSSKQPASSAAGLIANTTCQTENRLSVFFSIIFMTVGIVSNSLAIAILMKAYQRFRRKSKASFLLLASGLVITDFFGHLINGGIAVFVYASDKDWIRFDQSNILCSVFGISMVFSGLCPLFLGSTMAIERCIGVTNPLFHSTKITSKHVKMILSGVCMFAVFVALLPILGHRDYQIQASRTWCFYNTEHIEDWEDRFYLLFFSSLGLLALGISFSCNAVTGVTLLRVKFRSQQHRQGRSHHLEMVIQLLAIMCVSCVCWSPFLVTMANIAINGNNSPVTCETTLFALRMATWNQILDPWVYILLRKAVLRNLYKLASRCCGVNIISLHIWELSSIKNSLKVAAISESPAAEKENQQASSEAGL
Procedure: (§1) Confluent monolayer cultures of cells (in a standard 24-well tissue culture plate) expressing the FP receptor are exposed to [^3H]-myo-inositol (1.5 μCi in a volume of 0.5 ml DMEM culture medium supplemented with 2 mM L-glutamine and 10 μg/ml gentamicin sulfate) in the absence of serum, which causes net incorporation of the radioisotope into the phosphotidylinositol membrane lipids. After 24-32 hrs, the medium with the radioisotope is removed and the cells are rinsed once with DMEM/F-12 medium containing 10 mM LiCl (assay medium). Then 0.5 ml of assay medium is added to each well of cells, followed by addition of varying concentrations of an FP receptor agonist (or other test compound). Cells are exposed to the test agent for 30-120 min in a humidified incubator (95% air/5% CO2), maintained at 37° C. Then the assay medium is removed and 1 ml of 0.1 M formic acid is added to the cell monolayer to inactivate the phospholipase C and to the radiolabelled products into the assay medium. The presence of LiCl during the agonist stimulation period inhibits phosphatases and permits the accumulation of radiolabelled inositol phosphates (IPs) which is measured by ion exchange chromatography.
The agonist-dependent production of IPs, which reflects the degree of receptor activation, is quantitatively measured for each well of cells in the 24-well plate by separating the negatively charged radiolabelled IPs from other minor radiolabelled species and free [^3H]-myo-inositol by anion exchange chromatography. This is accomplished by adding 0.9 ml of the cell lysate obtained as described above to a column packed with 1 ml of AG 1-X8 anion exchange resin in the formate form. The elution and separation of the radiolabelled IPs from the column consists of sequential additions to the column of: 1) 10 ml of water; 2) 8 ml of 50 mM ammonium formate; and 3) 4 ml of 1.2 M ammonium formate solution containing 0.1 M formic acid. The first two washes are discarded, and the third is collected in a scintillation vial, to which is added 15 ml of a water-accepting scintillation fluid. These samples, i.e., the radiolabelled IPs formed by the cells in response to stimulation by an FP prostaglandin receptor agonist or other test agent, is then measured by scintillation spectrometry on a beta-counter.
The dependence of the level of the [^3H]IPs production on agonist concentration is analyzed by standard pharmacological methods to determine the potency (EC50 value) and efficacy (maximum response; Emax) of the FP receptor agonist relative to a standard FP receptor agonist such as fluprostenol. […] The agonist stimulation is then continued for the standard time (30-120 min), after which the procedure for quenching the reaction, separating the [^3H]IPs, and anion exchange chromatography is identical to the procedure described above. A compound is considered to be an antagonist in this protocol if it inhibits the agonist-stimulated [^3H]IPs production relative to the production measured in the control experiment (performed in parallel), in which the solvent is substituted for the antagonist.
Two different antagonist protocols are employed: 1) the antagonist concentration is varied while holding the agonist concentration fixed at a concentration approximately 10 times the agonist EC50 value and 2) the antagonist concentration is fixed in a given experiment, with the agonist concentration varied, and several such experiments, each with a different, fixed antagonist concentration, are performed. […] Overall, the Ki and Kb values are synonymous and represent the antagonist potency of the antagonist at equilibrium.

[2] = target: FP prostaglandin receptor (Homo sapiens, UniProt P43088); assay: Selectivity for FP prostaglandin receptor compared to other classes of prostaglandin receptors
FP prostaglandin receptor, sequence (P43088 whole entry): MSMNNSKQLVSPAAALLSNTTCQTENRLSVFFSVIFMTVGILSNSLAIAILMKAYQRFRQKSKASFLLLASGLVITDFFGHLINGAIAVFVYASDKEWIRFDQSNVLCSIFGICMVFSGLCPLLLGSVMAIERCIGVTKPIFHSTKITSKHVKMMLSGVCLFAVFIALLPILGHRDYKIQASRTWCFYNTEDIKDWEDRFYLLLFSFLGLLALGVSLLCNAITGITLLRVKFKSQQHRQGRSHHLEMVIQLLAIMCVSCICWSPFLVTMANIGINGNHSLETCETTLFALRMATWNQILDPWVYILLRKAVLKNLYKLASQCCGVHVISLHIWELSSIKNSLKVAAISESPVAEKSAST

[3] = target: T1, FP receptor; assay: Concentration-dependent inhibition of fluprostenol-stimulated [3H]IPs production in A7r5 cells (varied antagonist, fixed agonist); assay type: cell-based; settings: fluprostenol fixed at approximately 10 times its EC50, n=3, read-out: Ki (antagonist potency by method of FIG. 2)
Procedure: as §1, with “Then the assay medium is removed and 1 ml of 0.1 M formic acid is added to the cell monolayer to inactivate the phospholipase C and to the radiolabelled products into the assay medium.” left out
(§2) The agonist-dependent production of IPs, which reflects the degree of receptor activation, is quantitatively measured for each well of cells in the 24-well plate by separating the negatively charged radiolabelled IPs from other minor radiolabelled species and free [^3H]-myo-inositol by anion exchange chromatography. […]

[4] = tested on: FP receptor; assay: Schild analysis: antagonism of agonist-stimulated [3H]IPs production, data from 3T3 and A7r5 cells; assay type: cell-based, mouse and rat; settings: n=9 experiments using 3T3 and A7r5 cells; read-out: Kb (antagonist potency by Schild analysis)
Procedure: as §1, with “Then the assay medium is removed and 1 ml of 0.1 M formic acid is added to the cell monolayer to inactivate the phospholipase C and to the radiolabelled products into the assay medium.” left out
as §2

[5] = target: T1, FP receptor; assay: Agonist stimulation of [3H]IPs production in A7r5 cells; assay type: cell-based
Procedure: as §1, with “Then the assay medium is removed and 1 ml of 0.1 M formic acid is added to the cell monolayer to inactivate the phospholipase C and to the radiolabelled products into the assay medium.” left out
as §2

SMILES: CCCCNC(=O)NS(=O)(=O)c1ccc(C)cc1 [Tolbutamide]
- Kb (potency as antagonist of the FP receptor) ([1]; A7r5 cells): Inactive
- Kb (potency as antagonist of the FP receptor) ([1]; A7r5 cells, listed as tolbutamide): inactive

SMILES: O=C(CCc1ccc(O)cc1)c1c(O)cc(O)cc1O [Phloretin]
- Kb ([1]; A7r5 cells): 5200 nM

SMILES: CCCCC(F)[C@H](O)/C=C/[C@H]1CC[C@H](O)[C@@H]1C/C=C\CCCC(=O)O (some centres unmarked) [Compound II]
- Selectivity for the FP prostaglandin receptor compared to other classes of prostaglandin receptors [2]: relatively good selectivity
- Ki [3]: 324 ± 49 nM
- Kb [4]: 132 ± 22 nM
- Kb ([1]; A7r5 cells): 132 nM
- Type of antagonism (shift of fluprostenol dose-response curves) ([1]; A7r5 cells, maximal effects of fluprostenol unaltered, potency reduced): competitive antagonist
- Fold higher potency as FP receptor antagonist than phloretin ([1]; from Table 1 Kb values): greater than 39 fold
- Agonist classification (maximum effect relative to fluprostenol) [5]: partial agonist

SMILES: CCCCC[C@H](O)/C=C/[C@@H]1[C@@H](C/C=C\CCCCN(C)C)[C@@H](O)C[C@H]1O [PGF2α dimethyl amine]
- Kb (potency as antagonist of the FP receptor) ([1]; A7r5 cells): Inactive

SMILES: CCCCC[C@H](O)/C=C/[C@@H]1[C@@H](C/C=C\CCCC(=O)N(C)C)[C@@H](O)C[C@H]1O [PGF2α dimethyl amide]
- Kb (potency as antagonist of the FP receptor) ([1]; A7r5 cells): Inactive

SMILES: O=C(O)CCC/C=C\C[C@@H]1[C@@H](/C=C/[C@@H](O)COc2cccc(C(F)(F)F)c2)[C@H](O)C[C@@H]1O (racemic) [fluprostenol]
- Agonist classification (maximum effect relative to fluprostenol) [5]: full agonist

SMILES: COc1ccc(Cl)cc1C(=O)NCCc1ccc(S(=O)(=O)NC(=O)NC2CCCCC2)cc1 [Glibenclamide]
- Kb ([1]; A7r5 cells): 160000 nM
